Earlier results in publication PMC12150326 (The Journal of Organic Chemistry, 2025).
Values joined by “and” are separate entries in the source; they are usually repeats but may differ in a detail not shown here. Equal entries are not always repeated. Where two headings read alike, the source gives them in different places.

Tests used:
Set-up in all cases: method as in NCI-60 database
SR = SR ref NCI-60 database, cited from earlier work
EKVX = EKVX ref NCI-60 database, cited from earlier work
NCI-H522 = NCI-H522 ref NCI-60 database, cited from earlier work
HCT-15 = HCT-15 ref NCI-60 database, cited from earlier work
SF-268 = SF-268 ref NCI-60 database, cited from earlier work
M14 = M14 ref NCI-60 database, cited from earlier work
SK-MEL-2 = SK-MEL-2 ref NCI-60 database, cited from earlier work
UACC-62 = UACC-62 ref NCI-60 database, cited from earlier work
OVCAR-5 = OVCAR-5 ref NCI-60 database, cited from earlier work
CAKI-1 = CAKI-1 ref NCI-60 database, cited from earlier work
SN12C = SN12C ref NCI-60 database, cited from earlier work
TK-10 = TK-10 ref NCI-60 database, cited from earlier work
UO-31 = UO-31 ref NCI-60 database, cited from earlier work
MDA-MB-231/ATCC = MDA-MB-231/ATCC ref NCI-60 database, cited from earlier work
HOP-18 = HOP-18 ref NCI-60 database; cited from earlier work
DMS 273 = DMS 273 ref NCI-60 database, cited from earlier work
M19-MEL = M19-MEL ref NCI-60 database, cited from earlier work
OVCAR-3 = OVCAR-3 ref NCI-60 database, cited from earlier work
RXF-631 = RXF-631 ref NCI-60 database, cited from earlier work

Compound: COc1cc2c(c(OC)c1OC)-c1ccc(OC)c(=O)cc1[C@@H](NC(C)=O)CC2 [Colchicine, (−)-Colchicine]
- GI50 (SR): 30 nM
- Log10GI50 (SR): -7.49 Molar
- Log10LC50 (SR): > -4.00 Molar
- Log10GI50 (SR; listed as 757/9): < -8.00 Molar
- Log10TGI (SR; listed as 757/9): -7.47 Molar
- Log10TGI (SR; listed as 757/21): > -4.00 Molar
- GI50 (EKVX): > 100000 nM
- Log10GI50 (EKVX): > -4 Molar
- Log10LC50 (EKVX): > -4.00 Molar
- Log10TGI (EKVX): > -4.00 Molar
- Log10GI50 (EKVX; listed as 757/21): > -4.00 Molar
- GI50 (NCI-H522): 10 nM
- Log10GI50 (NCI-H522): -7.84 Molar
- Log10LC50 (NCI-H522): > -4.00 Molar
- Log10GI50 (NCI-H522; listed as 757/1): -7.64 Molar
- Log10TGI (NCI-H522; listed as 757/1): -7.26 Molar
- Log10TGI (NCI-H522; listed as 757/9): -7.46 Molar
- Log10GI50 (NCI-H522; listed as 757/21): < -8.00 Molar and -7.98 Molar and -7.84 Molar
- GI50 (HCT-15): 210 nM
- Log10GI50 (HCT-15): -6.68 Molar
- Log10LC50 (HCT-15; listed as 757/9): -5.60 Molar
- Log10LC50 (HCT-15; listed as 757/21): > -4.00 Molar
- GI50 (SF-268): 4680 nM
- Log10GI50 (SF-268): -5.33 Molar
- Log10LC50 (SF-268): > -4.00 Molar
- Log10GI50 (SF-268; listed as 757/9): -7.12 Molar
- Log10TGI (SF-268; listed as 757/9): -6.03 Molar
- Log10TGI (SF-268; listed as 757/21): > -4.00 Molar
- GI50 (M14): 55 nM
- Log10GI50 (M14): -7.26 Molar
- Log10LC50 (M14): > -4.00 Molar
- Log10GI50 (M14; listed as 757/9): -7.68 Molar
- Log10TGI (M14; listed as 757/9): -6.43 Molar
- GI50 (SK-MEL-2): < 10 nM
- Log10GI50 (SK-MEL-2): < -8 Molar
- Log10LC50 (SK-MEL-2): > -4.00 Molar
- Log10GI50 (SK-MEL-2; listed as 757/1): -7.53 Molar
- Log10TGI (SK-MEL-2; listed as 757/1): < -8.00 Molar
- Log10GI50 (SK-MEL-2; listed as 757/21): < -8.00 Molar
- Log10TGI (SK-MEL-2; listed as 757/21): > -4.00 Molar
- GI50 (UACC-62): 21 nM
- Log10GI50 (UACC-62): -7.67 Molar
- Log10GI50 (UACC-62; listed as 757/1): -7.19 Molar
- Log10GI50 (UACC-62; listed as 757/9): -6.40 Molar
- Log10LC50 (UACC-62; listed as 757/9): -6.18 Molar
- Log10TGI (UACC-62; listed as 757/9): -7.72 Molar
- Log10LC50 (UACC-62; listed as 757/21): > -4.00 Molar and -4.22 Molar
- GI50 (OVCAR-5): 76 nM
- Log10GI50 (OVCAR-5): -7.12 Molar
- Log10LC50 (OVCAR-5): > -4.00 Molar
- Log10GI50 (OVCAR-5; listed as 757/1): -4.48 Molar
- Log10LC50 (CAKI-1): > -4.00 Molar
- Log10GI50 (CAKI-1; listed as 757/1): < -8.00 Molar
- Log10TGI (CAKI-1; listed as 757/1): > -4.00 Molar
- Log10GI50 (CAKI-1; listed as 757/9): -6.57 Molar
- Log10TGI (CAKI-1; listed as 757/9): -6.69 Molar
- GI50 (SN12C): 54 nM
- Log10GI50 (SN12C): -7.27 Molar
- Log10LC50 (SN12C): > -4.00 Molar
- Log10GI50 (SN12C; listed as 757/9): < -8.00 Molar
- Log10GI50 (SN12C; listed as 757/21): -7.33 Molar and -7.28 Molar and -7.27 Molar
- Log10TGI (SN12C; listed as 757/21): > -4.00 Molar and -4.21 Molar
- GI50 (TK-10): > 100000 nM
- Log10GI50 (TK-10): > -4 Molar
- Log10LC50 (TK-10): > -4.00 Molar
- Log10TGI (TK-10): > -4.00 Molar
- Log10GI50 (TK-10; listed as 757/1): > -4.00 Molar
- Log10GI50 (TK-10; listed as 757/9): -7.50 Molar
- Log10GI50 (TK-10; listed as 757/21): -4.66 Molar
- GI50 (UO-31): 513 nM
- Log10GI50 (UO-31): -6.29 Molar
- Log10LC50 (UO-31): > -4.00 Molar
- Log10TGI (UO-31; listed as 757/9): -6.03 Molar
- Log10TGI (UO-31; listed as 757/21): -4.19 Molar and > -4.00 Molar
- GI50 (MDA-MB-231/ATCC): 7080 nM
- Log10GI50 (MDA-MB-231/ATCC): -5.15 Molar
- Log10LC50 (MDA-MB-231/ATCC): > -4.00 Molar
- Log10TGI (MDA-MB-231/ATCC): > -4.00 Molar
- Log10GI50 (MDA-MB-231/ATCC; listed as 757/9): < -8.00 Molar and -7.78 Molar
- Log10GI50 (MDA-MB-231/ATCC; listed as 757/21): -5.15 Molar
- Log10GI50 (HOP-18): > -4.00 Molar
- Log10LC50 (HOP-18): > -4.00 Molar
- Log10TGI (HOP-18): > -4.00 Molar
- Log10LC50 (DMS 273): > -4.00 Molar
- Log10TGI (DMS 273): > -4.00 Molar
- Log10GI50 (DMS 273; listed as 757/1): -7.51 Molar
- Log10GI50 (DMS 273; listed as 757/21): < -8.00 Molar and -7.87 Molar
- Log10LC50 (M19-MEL): > -4.00 Molar
- Log10TGI (M19-MEL): > -4.00 Molar
- Log10GI50 (M19-MEL; listed as 757/21): < -8.00 Molar
- Log10GI50 (OVCAR-3; listed as 757/1): -7.58 Molar
- Log10LC50 (OVCAR-3; listed as 757/1): > -4.00 Molar
- Log10TGI (OVCAR-3; listed as 757/1): -7.12 Molar
- Log10GI50 (OVCAR-3; listed as 757/9): -7.81 Molar
- Log10LC50 (OVCAR-3; listed as 757/9): < -8.00 Molar
- Log10TGI (OVCAR-3; listed as 757/9): -7.44 Molar
- Log10GI50 (OVCAR-3; listed as 757/21): < -8.00 Molar and -7.73 Molar
- Log10LC50 (RXF-631): > -4.00 Molar
- Log10TGI (RXF-631): > -4.00 Molar
- Log10GI50 (RXF-631; listed as 757/21): -7.45 Molar
